In patent publication US20230398130A1, “METHODS AND COMPOSITIONS FOR DIFFERENTIATING STEM CELLS” (Massachusetts Institute of Technology, priority 2020, published 2023):
Structures can show the parent of a compound that is named as a salt.

Test system: ISC-enriched organoids
Assay: Primary screen, 384-well 2.5-D organoid differentiation (ENR+CD, 6 days, Target Selective Inhibitor Library, vs whole-plate median): ATP (CellTiter-Glo 3D, CTG)
Conditions: for Z.CTG: standard z score of FC

CCC(COC(=O)c1cc(OC)c(OC)c(OC)c1)(c1ccccc1)N(C)C (stereo not shown) [Trimebutine]
Z.CTG (standard z score) (dose 0.08 uM): 0.017 | Z.CTG (standard z score) (dose 0.40 uM): −0.483 | Z.CTG (standard z score) (dose 2.00 uM): −2.409 | Z.CTG (standard z score) (dose 10.00 uM): −2.545

COc1ccccc1N1CCN(CC(O)COc2cccc3ccccc23)CC1 (stereo not shown) [Naftopidil]
Z.CTG (Dose 0.08 uM): −0.093 | Z.CTG (Dose 0.40 uM): −0.384 | Z.CTG (Dose 2.00 uM): −0.426 | Z.CTG (Dose 10.00 uM): −0.316

CCc1cccc2c3c([nH]c12)C(CC)(CC(=O)O)OCC3 (stereo not shown) [Etodolac]
Z.CTG (Dose 0.08 uM): −0.147 | Z.CTG (Dose 0.40 uM): 0.117 | Z.CTG (Dose 2.00 uM): 0.020 | Z.CTG (Dose 10.00 uM): 0.054

Cc1ccccc1C(=O)Nc1ccc(C(=O)N2CCCC(O)c3cc(Cl)ccc32)c(C)c1 (stereo not shown) [Tolvaptan]
Z.CTG (standard z score) (dose 0.08 uM): 0.227 | Z.CTG (standard z score) (dose 0.40 uM): −0.019 | Z.CTG (standard z score) (dose 2.00 uM): −0.225 | Z.CTG (standard z score) (dose 10.00 uM): −0.249

Cc1cc(OCCCS(C)(=O)=O)cc(C)c1-c1cccc(COc2ccc3c(c2)OC[C@H]3CC(=O)O)c1 [TAK-875]
Z.CTG (standard z score) (Dose 0.08 uM, primary screen): 0.572 | Z.CTG (standard z score) (Dose 0.40 uM, primary screen): −0.392 | Z.CTG (standard z score) (Dose 2.00 uM, primary screen): −0.376 | Z.CTG (standard z score) (Dose 10.00 uM, primary screen): −0.694

C=CC(=O)Nc1cccc(Oc2nc(Nc3ccc(N4CCN(C)CC4)cc3OC)ncc2Cl)c1 [WZ4002]
Z.CTG (standard z score) (dose 0.08 uM): 0.748 | Z.CTG (standard z score) (dose 0.40 uM): 0.196 | Z.CTG (standard z score) (dose 2.00 uM): 0.360 | Z.CTG (standard z score) (dose 10.00 uM): −2.248

COCCOc1ccc2c(c1)ncn2-c1ccc2cccc(N3CCC(N)CC3)c2n1 [CP-673451]
Z.CTG (Dose 0.08 uM): 0.166 | Z.CTG (Dose 0.40 uM): 0.445 | Z.CTG (Dose 2.00 uM): 0.018 | Z.CTG (Dose 10.00 uM): −0.616

Oc1c2ccccc2c2c3c(cccc13)N=N2 [SP600125]
Z.CTG (standard z score) (Dose 0.08 uM, primary screen): 0.471 | Z.CTG (standard z score) (Dose 0.40 uM, primary screen): 0.347 | Z.CTG (standard z score) (Dose 2.00 uM, primary screen): 0.246 | Z.CTG (standard z score) (Dose 10.00 uM, primary screen): −0.047

CNC(=C[N+](=O)[O-])NCCSCc1ccc(CN(C)C)o1 [Ranitidine]
Z.CTG (standard z score) (Dose 0.08 uM, primary screen): −0.121 | Z.CTG (standard z score) (Dose 0.40 uM, primary screen): 0.370 | Z.CTG (standard z score) (Dose 2.00 uM, primary screen): −0.165 | Z.CTG (standard z score) (Dose 10.00 uM, primary screen): −0.625

O=c1ncn2nc(Sc3ccc(F)cc3F)ccc2c1-c1c(Cl)cccc1Cl [VX-745]
Z.CTG (standard z score) (dose 0.08 uM): 0.445 | Z.CTG (standard z score) (dose 0.40 uM): 0.349 | Z.CTG (standard z score) (dose 2.00 uM): 0.044 | Z.CTG (standard z score) (dose 10.00 uM): 0.053

C#CCN[C@@H]1CCc2ccccc21 [Rasagiline Mesylate]
Z.CTG (standard z score) (Dose 0.08 uM, primary screen): 0.367 | Z.CTG (standard z score) (Dose 0.40 uM, primary screen): 0.246 | Z.CTG (standard z score) (Dose 2.00 uM, primary screen): 0.099 | Z.CTG (standard z score) (Dose 10.00 uM, primary screen): 0.249

COC(=O)C1=C(C#N)NC(C)=C(C(=O)OC(C)C)C1c1cccc([N+](=O)[O-])c1 (stereo not shown) [Nilvadipine]
Z.CTG (Dose 0.08 uM): 0.493 | Z.CTG (Dose 0.40 uM): 0.324 | Z.CTG (Dose 2.00 uM): 0.506 | Z.CTG (Dose 10.00 uM): 0.460

Nc1cccc2c1C(=O)N(C1CCC(=O)NC1=O)C2=O (stereo not shown) [Pomalidomide]
Z.CTG (Dose 0.08 uM): 0.150 | Z.CTG (Dose 0.40 uM): 0.536 | Z.CTG (Dose 2.00 uM): −0.517 | Z.CTG (Dose 10.00 uM): −0.729

CC[C@@H]1C(=O)N(C)c2cnc(Nc3ccc(C(=O)NC4CCN(C)CC4)cc3OC)nc2N1C1CCCC1 [BI 2536]
Z.CTG (primary screen, dose 0.08 uM): 0.069 | Z.CTG (primary screen, dose 0.40 uM): −1.275 | Z.CTG (primary screen, dose 2.00 uM): −1.220 | Z.CTG (primary screen, dose 10.00 uM): −2.455

CN[C@H]1CC[C@@H](c2ccc(Cl)c(Cl)c2)c2ccccc21 [Sertraline HCl]
Z.CTG (standard z score) (Dose 0.08 uM, primary screen): −0.189 | Z.CTG (standard z score) (Dose 0.40 uM, primary screen): 0.208 | Z.CTG (standard z score) (Dose 2.00 uM, primary screen): 0.157 | Z.CTG (standard z score) (Dose 10.00 uM, primary screen): 0.104

CCN(c1cc(-c2ccc(CN3CCOCC3)cc2)cc(C(=O)NCc2c(C)cc(C)[nH]c2=O)c1C)C1CCOCC1 [EPZ-6438]
Z.CTG (Dose 0.08 uM): 0.107 | Z.CTG (Dose 0.40 uM): 0.178 | Z.CTG (Dose 2.00 uM): −0.163 | Z.CTG (Dose 10.00 uM): 0.802

C#CCC(Cc1cnc2nc(N)nc(N)c2n1)c1ccc(C(=O)N[C@@H](CCC(=O)O)C(=O)O)cc1 (stereo partly shown) [Pralatrexate]
Z.CTG (standard z score) (Dose 0.08 uM, primary screen): −1.551 | Z.CTG (standard z score) (Dose 0.40 uM, primary screen): −2.036 | Z.CTG (standard z score) (Dose 2.00 uM, primary screen): −1.626 | Z.CTG (standard z score) (Dose 10.00 uM, primary screen): −2.201

CC(C)n1c(/C=C/C(O)CC(O)CC(=O)O)c(-c2ccc(F)cc2)c2ccccc21 (stereo not shown) [Fluvastatin Sodium]
Z.CTG (Dose 0.08 uM): −0.384 | Z.CTG (Dose 0.40 uM): −1.151 | Z.CTG (Dose 2.00 uM): −2.653 | Z.CTG (Dose 10.00 uM): −4.206

CC(C)OC(=O)C1=CN(C(=O)c2ccc(F)c(F)c2)CC(C)(C)c2c1[nH]c1ccccc21 [XL335]
Z.CTG (standard z score) (dose 0.08 uM): 0.297 | Z.CTG (standard z score) (dose 0.40 uM): −0.615 | Z.CTG (standard z score) (dose 2.00 uM): −0.619 | Z.CTG (standard z score) (dose 10.00 uM): −0.373

C[C@@H](NCCCc1cccc(C(F)(F)F)c1)c1cccc2ccccc12 [Cinacalcet HCl]
Z.CTG (Dose 0.08 uM): −1.061 | Z.CTG (Dose 0.40 uM): −0.712 | Z.CTG (Dose 2.00 uM): −0.028 | Z.CTG (Dose 10.00 uM): −1.076

NC(=O)N1c2ccccc2CC(=O)c2ccccc21 [Oxcarbazepine]
Z.CTG (Dose 0.08 uM): −0.051 | Z.CTG (Dose 0.40 uM): −0.247 | Z.CTG (Dose 2.00 uM): −0.197 | Z.CTG (Dose 10.00 uM): −0.359

COc1ccccc1Oc1c(NS(=O)(=O)c2ccc(C(C)(C)C)cc2)nc(-c2ncccn2)nc1OCCO [Bosentan Hydrate]
Z.CTG (primary screen, dose 0.08 uM): 0.487 | Z.CTG (primary screen, dose 0.40 uM): 0.495 | Z.CTG (primary screen, dose 2.00 uM): 0.288 | Z.CTG (primary screen, dose 10.00 uM): 0.204

CN1CC(=O)N2[C@H](c3ccc4c(c3)OCO4)c3[nH]c4ccccc4c3C[C@@H]2C1=O [Tadalafil]
Z.CTG (standard z score) (Dose 0.08 uM, primary screen): −0.046 | Z.CTG (standard z score) (Dose 0.40 uM, primary screen): 0.863 | Z.CTG (standard z score) (Dose 2.00 uM, primary screen): 1.042 | Z.CTG (standard z score) (Dose 10.00 uM, primary screen): 0.644

CCNC(=O)[C@H]1O[C@@H](n2cnc3c(N)nc(NCCc4ccc(CCC(=O)O)cc4)nc32)[C@H](O)[C@@H]1O [CGS 21680 HCl]
Z.CTG (Dose 0.08 uM): 0.724 | Z.CTG (Dose 0.40 uM): 1.049 | Z.CTG (Dose 2.00 uM): 0.799 | Z.CTG (Dose 10.00 uM): −3.328

CC(C)CC(=O)Nc1[nH]nc2c1CN(C(=O)C1CCN(C)CC1)C2(C)C [PHA-793887]
Z.CTG (Dose 0.08 uM): 0.271 | Z.CTG (Dose 0.40 uM): 0.314 | Z.CTG (Dose 2.00 uM): −0.344 | Z.CTG (Dose 10.00 uM): −2.045

Oc1cc(O)cc(/C=C/c2ccc(O)c(O)c2)c1 [Piceatannol]
Z.CTG (Dose 0.08 uM): 0.554 | Z.CTG (Dose 0.40 uM): −0.216 | Z.CTG (Dose 2.00 uM): 0.177 | Z.CTG (Dose 10.00 uM): −0.170

Cc1sc2c(c1C)C(c1ccc(Cl)cc1)=N[C@@H](CC(=O)Nc1ccc(O)cc1)c1nnc(C)n1-2 [OTX015]
Z.CTG (Dose 0.08 uM): −0.092 | Z.CTG (Dose 0.40 uM): −0.952 | Z.CTG (Dose 2.00 uM): −1.638 | Z.CTG (Dose 10.00 uM): −2.169

CNCc1ccc(-c2cc(-c3nc(-c4ccc(S(=O)(=O)C(C)C)cc4)cnc3N)on2)cc1 [VE-822]
Z.CTG (standard z score) (dose 0.08 uM): −0.351 | Z.CTG (standard z score) (dose 0.40 uM): −0.685 | Z.CTG (standard z score) (dose 2.00 uM): −1.713 | Z.CTG (standard z score) (dose 10.00 uM): −4.212

CC(NC(=O)c1ccccc1/N=C/c1c(O)ccc2ccccc12)c1ccccc1 (stereo not shown) [Sirtinol]
Z.CTG (standard z score) (Dose 0.08 uM, primary screen): −0.520 | Z.CTG (standard z score) (Dose 0.40 uM, primary screen): 0.022 | Z.CTG (standard z score) (Dose 2.00 uM, primary screen): −0.287 | Z.CTG (standard z score) (Dose 10.00 uM, primary screen): −0.186

Nc1nc(N)c2nc(-c3ccccc3)c(N)nc2n1 [Triamterene]
Z.CTG (standard z score) (dose 0.08 uM): −0.070 | Z.CTG (standard z score) (dose 0.40 uM): −0.394 | Z.CTG (standard z score) (dose 2.00 uM): −0.241 | Z.CTG (standard z score) (dose 10.00 uM): −1.103

C[C@]12CC[C@@H]3c4ccc(O)cc4C[C@@H](CCCCCCCCC[S+]([O-])CCCC(F)(F)C(F)(F)F)[C@H]3[C@@H]1CC[C@@H]2O (stereo partly shown) [Fulvestrant]
Z.CTG (Dose 0.08 uM): 0.285 | Z.CTG (Dose 0.40 uM): −0.150 | Z.CTG (Dose 2.00 uM): 0.339 | Z.CTG (Dose 10.00 uM): −0.488
